According to US20140057841A1, “HUMAN INSULIN AND ANALOG CONJUGATE THEREOF” (Chongqing Fagen Biomedical Inc., priority 2011, published 2014):
Where two headings read alike, the source gives them in different places.

How the values were obtained:
[1] = system: Type 1 diabetes model of KunMing mice; assay: Blood sugar lowering in mice Type 1 diabetes model; type: in vivo; conditions: subcutaneous 0.25 mg/kg, STZ mice; for time the blood sugar lowering effect may sustain: empty stomach blood sugar
Description: 70 healthy KunMing male SPF mice (purchased from the Third Military Medical Univ., China) with body weight of 25-30 g were fed with water only and no food for 14 hours, and then subject to 120 mg/kg of rapid intraperitoneal injection of streptozotocin (STZ) solution (4.8 mg/ml) that was prepared with citric acid- trisodium citrate buffer, to establish a Type 1 diabetes model. After the injection, the mice were immediately fed with food and water. After 48 hours of model establishing, blood was sampled from caudal vein, and blood sugar value was detected with glucometer (Bayer's Fast Glucometer) after fasting for 2 hours, wherein a blood sugar value of >11.1 mmol/L indicates successful modeling. […] Groups B, C, and D were respectively subject to subcutaneous administration by a dosage of 0.25 mg/kg, and group A was injected with isovolumetric solvent. Before administration (i.e., 0 hour) and after 1, 2, 6, 10, 15, 18, and 24 hours of administration, blood was sampled from caudal vein for the detection of empty stomach (fasting for 2 hours) blood sugar value. The average blood sugar value was calculated and time activity curve was made (FIG. 4).
The average blood sugar value was calculated and time activity curve was made (FIG. 5).

[2] = system: Type 1 diabetes model of New Zealand albino rabbits; assay: Blood sugar lowering experiment on Type 1 diabetes model (IDDM) rabbits; type: in vivo; conditions: subcutaneous 0.2 mg/kg; for hypoglycemic activity: rabbit Type 1 diabetes model; for time the blood sugar lowering effect may sustain: tetraoxypyrimidine rabbits, empty stomach blood sugar
Description: 40 male New Zealand albino rabbits (purchased from the Third Military Medical Univ., China) with body weight of 2-3 kg were fed with water only and no food for 24 hours, and then subject to 5 ml/kg of ear vein single injection of tetraoxypyrimidine solution (with concentration of 20 mg/ml) to establish models. After the injection, the rabbits were immediately fed with food and water. After 3 days of model establishing, blood was sampled every day from ear vein after fasting for 6 hours, and blood sugar value was detected with glucometer, wherein a blood sugar value of >11.1 mmol/L indicates successful modeling. […] Groups B, C, and D were respectively subject to subcutaneous administration by a dosage of 0.2 mg/kg, and group A was injected with isovolumetric solvent. Before administration (i.e., 0 hour) and after 1, 2, 4, 8, 12, 24, 36, 48, 60, 72, 84, and 96 hours of administration, blood was sampled from ear vein for the detection of empty stomach (fasting for 6 hours) blood sugar value (Fast Glucometer, Bayer). The average blood sugar value was calculated and time activity curve was made (FIG. 6).
The average blood sugar value was calculated and time activity curve was made (FIG. 7).

[3] = system: Beagle dog Type 1 diabetes model; assay: Blood sugar lowering experiment of DesB30-20 k conjugate on Beagle dog Type 1 diabetes model; type: in vivo, Beagle dogs
Description: 20 healthy Beagle dogs (purchased from the Third Military Medical Univ., China) with body weight of 5-8 kg were fed with water only and no food for 24 hours, and then subject to foreleg subcutaneous vein injection of tetraoxypyrimidine solution (200 mg/ml) and STZ solution (120 mg/ml), with respective dosage of 50 mg/kg and 30 mg/kg, to establish Type 1 diabetes models. After the injection, the dogs were immediately fed with food and water. After 72 hours of model establishing, successful modeling was indicated by the signs of polyphagia, polydipsia, polyuria, lose weight, and blood sugar value of >11.1 mmol/L. 12 modeled dogs were randomly divided into 3 groups, 4 for each group (group A, control, group B, administration by 0.05 mg/kg, and group C, administration by 0.10 mg/kg), and subject to subcutaneous administration for one time. After 0, 2, 6, 12, 18, 24, 36, 48, 72, 96, and 120 hours of administration, blood was sampled from hindlimb vein for the detection of empty stomach (fasting for 6 hours) blood sugar value (GOD-POD method). The average blood sugar value was calculated and single administration time activity curve was made (FIG. 8). […] Then, the model animals were tested with multiple times of subcutaneous administration, with an interval of 72 hours (with a dosage of 0.05 mg/kg, 0.10 mg/kg, or isovolumetric solvent) for 6 times. From Day 1 to Day 21 after the administration, empty stomach blood sugar value was detected every three days, and blood was sampled after the last administration for pharmacokinetics experiments. […] The durations of hypoglycemic activity for single and multiple administrations are basicly the same, i.e., 72 hours. During the multiple administrations, the empty stomach blood sugar value of animals in administration groups were kept in average with about 5 mmol/L, whereas the empty stomach blood sugar value of animals in control group were kept in average with about 25 mmol/L.

[4] = in human body; cited from earlier work
[5] = in animals; cited from earlier work

| Substance | hypoglycemic activity [1] | time the blood sugar lowering effect may sustain [1] | hypoglycemic activity [2] | time the blood sugar lowering effect may sustain [2] | further results |
| --- | --- | --- | --- | --- | --- |
| DesB30-5K: DesB30 recombinant human insulin coupled at the ε-amino group of Lys B29 to 5K mPEG-SPA via amide bond | significant hypoglycemic activity | about 8 hours | significant hypoglycemic activity | about 15 hours | – |
| DesB30-10K: DesB30 recombinant human insulin coupled at the ε-amino group of Lys B29 to 10K mPEG-SPA via amide bond | significant hypoglycemic activity | about 12 hours | significant hypoglycemic activity | about 30 hours | – |
| DesB30-20K: DesB30 recombinant human insulin coupled at the ε-amino group of Lys B29 to 20K mPEG-SPA via amide bond | significant hypoglycemic activity | about 18 hours | significant hypoglycemic activity | about 55 hours | hypoglycemic activity ([3]; Beagle dogs Type 1 diabetes model, 0.05 and 0.10 mg/kg): significant hypoglycemic activity; average empty stomach blood sugar value during multiple administrations ([3]; administration groups (0.05 or 0.10 mg/kg s.c., every 72 hours, 6 times), control about 25 mmol/L): about 5 mmol/L; time blood sugar is effectively lowered ([3]; single subcutaneous administration, 0.10 mg/kg): 72 h; duration of hypoglycemic activity for single and multiple administrations ([3]; single, and multiple subcutaneous administrations (interval 72 hours, 6 times)): 72 h |
| Ins-5K: recombinant human insulin conjugate with 5K mPEG-SPA at Lys B29, prepared as in Example 2 | – | about 8 hours | – | about 15 hours | – |
| Ins-10K: recombinant human insulin conjugate with 10K mPEG-SPA at Lys B29, prepared as in Example 3 | – | about 12 hours | – | about 35 hours | – |
| Ins-20K: recombinant human insulin conjugate with 20K mPEG-SPA at Lys B29, prepared as in Example 4 | – | about 18 hours | – | about 55 hours | – |
| insulin detemir | – | – | – | – | duration of activity [4]: 24 h; duration of activity [5]: 12 h |
